In patent US12258337B2, “Bicyclic CX3CR1 receptor agonists” (Board of Regents, The University of Texas System, priority 2019, dated 2025) one finds EC50 data, which are given here for 13 compounds.

One may read the EC50 as the concentration needed to bring the measured effect to its halfway point.

Common to all, as to type: cell-based
One assay has as its target T1, mCX3CR1 (Mus musculus, UniProt Q9Z0D9).
T1 construct: expressed in transfected cells; stably expresses a Ca2+ sensitive photo-protein
T1 sequence (Q9Z0D9 1-354): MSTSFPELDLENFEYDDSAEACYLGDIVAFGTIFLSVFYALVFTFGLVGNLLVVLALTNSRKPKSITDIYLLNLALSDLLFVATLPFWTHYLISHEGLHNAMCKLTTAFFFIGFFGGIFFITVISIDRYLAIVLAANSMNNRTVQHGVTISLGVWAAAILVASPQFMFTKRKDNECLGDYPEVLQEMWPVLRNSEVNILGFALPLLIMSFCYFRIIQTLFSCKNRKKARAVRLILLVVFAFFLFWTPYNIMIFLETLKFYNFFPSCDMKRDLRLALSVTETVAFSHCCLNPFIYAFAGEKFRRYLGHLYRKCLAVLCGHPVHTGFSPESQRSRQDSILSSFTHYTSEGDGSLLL
Put plainly: Ga16 assay, CX3CR1 agonism, Ca2+ sensitive photo-protein readout (FLIPRTETRA). The settings on record: mouse CX3CR1 cell line. Here is the method:
(§1) Compounds (as well as stereoisomer(s) thereof and/or salt(s) thereof) were tested for CX3CR1 agonism in a cell based assay with fluorescent readout in Agonist Mode in dose response in quadruplicate with intra-plate modality).
(§2) Buffers and reagents. PBS (D-PBS without calcium and magnesium; EuroClone); Trypsin (Trypsin 0.05%, EDTA 0.02% in PBS; EuroClone); DMSO (Sigma); Standard tyrode buffer: in-house solution (130 mM NaCl, 5 mM KCl, 2 mM CaCl2), 1 mM MgCl2, 5 mM NaHCO3, 20 mM HEPES in water at pH 7.4; sterile filtered); Coelenterazine, native (Biosynth); stock 10 mM; Agonist: Recombinant Human Fractalkine (CX3CL1) (PeproTech); stock: 10 μM in standard tyrode buffer+BSA 0.1%; stored at −20° C.
(§3) Cell line. Human (hCX3CR1), mouse (mCX3CR1), and rat (rCX3CR1) were used for the assay.
(§4) Assay protocol. Experiments ere performed in 384 MTP format. Cells were seeded at 7,500 cells/well in 25 μl/well complete growth medium without selection antibiotics in 384-well plates. Twenty-four hours later, cells ere assayed for the response to various compounds using the Ca^2+ sensitive photo-protein stably expressed in the cells as readout.
(§5) The experiment was performed in a 384-well format according to the following procedure: • 24h after seeding, pre-incubate the cells at room temperature for 1 hour. • Then remove the culture medium. • Load cells with 20 μL/well of standard tyrode buffer+10 μM ceolenterazine. • Incubate cell plates for 3 hours at RT. • Inject 10 μL/w of 3× concentrated test compounds and controls in assay buffer at the FLIPRTETRA and monitor the kinetic response over a period of 90 seconds.
(§6) Data from FLIPRTETRA measurements were analyzed with the Genedata Screener© software. The following examples are meant to illustrate, but in no way to limit, the claimed invention.

The target in a further assay is T2, rCX3CR1 (Rattus norvegicus, UniProt P35411).
T2 construct: expressed in transfected cells; stably expresses a Ca2+ sensitive photo-protein
T2 sequence (P35411 1-354): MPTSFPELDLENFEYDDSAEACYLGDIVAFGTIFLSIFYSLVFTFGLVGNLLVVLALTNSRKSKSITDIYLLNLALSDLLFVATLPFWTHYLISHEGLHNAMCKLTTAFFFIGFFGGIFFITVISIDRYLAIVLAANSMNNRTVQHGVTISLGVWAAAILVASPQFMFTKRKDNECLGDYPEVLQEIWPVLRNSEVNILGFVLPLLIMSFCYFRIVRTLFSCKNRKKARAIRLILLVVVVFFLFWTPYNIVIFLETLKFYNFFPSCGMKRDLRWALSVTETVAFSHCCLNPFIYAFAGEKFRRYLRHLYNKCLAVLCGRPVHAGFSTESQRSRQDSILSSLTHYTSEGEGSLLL
Described as above. The settings on record: rat CX3CR1 cell line. As for the experimental part: as §1, §2, §3, §4, §5, §6

The target in assay [1] is T3, hCX3CR1 (Homo sapiens, UniProt P49238).
T3 sequence (P49238 1-355): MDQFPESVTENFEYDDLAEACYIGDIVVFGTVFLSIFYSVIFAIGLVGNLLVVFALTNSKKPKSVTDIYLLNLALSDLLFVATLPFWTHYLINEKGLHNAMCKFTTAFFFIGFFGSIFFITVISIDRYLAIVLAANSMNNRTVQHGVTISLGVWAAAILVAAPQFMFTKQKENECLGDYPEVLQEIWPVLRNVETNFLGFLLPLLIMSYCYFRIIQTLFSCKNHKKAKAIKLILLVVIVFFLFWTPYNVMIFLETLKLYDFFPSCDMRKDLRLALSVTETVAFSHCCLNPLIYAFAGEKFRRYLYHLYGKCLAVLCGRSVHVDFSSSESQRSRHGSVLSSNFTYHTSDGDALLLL
The assay is described as above. Also noted: expressed in transfected cells; stably expresses a Ca2+ sensitive photo-protein. The note with it: human CX3CR1 cell line. Here is the method:
as §1, §2, §3, §4, §5, §6

For assay [2], the target named is T3, hCX3CR1. Put plainly: Suchi5 assay (HEK/NatClytin/CNG/Suchi5 transiently transfected hCX3CR1, Fluo-8 Ca2+ readout). The note with it: Suchi5 assay, HEK/NatClytin/CNG/Suchi5 transfected with hCX3CR1; read-out: hCX3CR1 agonism EC50. On the set-up: expressed in transfected cells; stably expresses a Ca2+ sensitive photo-protein. Here is the method:
Buffers and reagents. PBS (D-PBS without calcium and magnesium; EuroClone); Trypsin (Trypsin 0.05%, EDTA 0.02% in PBS; EuroClone); Opti-MEM medium (Thermo Fisher); DMSO (Sigma); Standard tyrode buffer: in-house solution (130 mM NaCl, 5 mM KCl, 2 mM CaCl2), 1 mM MgCl2, 5 mM NaHCO3, 20 mM HEPES in water at pH 7.4; sterile filtered); Screen Quest™ Fluo-8 No Wash Calcium Assay Kit (AAt Bioquest®); Lipofectamine® 2000 Reagent (Thermo Fisher); Agonist: Recombinant Human Fractalkine (CX3CL1) (PeproTech); stock: 10 μM in standard Tyrode buffer/BSA 01%; stored at −20° C.
Cell line. The final cell line for CX3CR1-Suchi5 assay is HEK/NatClytin/CNG/Suchi5 transiently transfected hCX3CR1 cDNA. In this cell line native Gαi signaling is switched to Gαq pathway thanks to the overexpression of a Gαiq chimeric G protein (called Suchi5) to direct Gαi activation towards Ca^2+ release for measurement.
Assay protocol. Experiments are performed in 384 MTP format. Transiently transfected cells are seeded at 20,000 cells/well in 25 μl/well Opti-MEM medium without selection antibiotics in 384-well plates. 4-5-hours later 25 μL/well of complete medium with 20% of FBS are added to the cells. Twenty-four hours later, cells are assayed for the response to various compounds using a fluorescent Ca^2+ sensitive dye (FLUO8-No Wash Dye) as readout.
The experiment is performed in a 384-well format according to the following procedure: • 24h after seeding, remove the culture medium. • Load cells with 20 μL/well of 0.5X FLUO-8 No Wash Dye diluted in assay buffer. • Incubate cell plates for 1 hour at RT. • Inject 10 μL/w of 3× concentrated test compounds and controls in assay buffer at the FLIPRTETRA and monitor the kinetic response over a period of 90 seconds.
Data from FLIPRTETRA measurements are analyzed with the Genedata Screener© software.

Bounds are passed on as bounds.

For the compound `CC(C)(CNC(=O)c1cc2c(s1)CCCCCC2)CN1CCCC(O)C1` (stereo not shown) [Example 46, N-[3-(3-hydroxypiperidin-1-yl)-2,2-dimethylpropyl]-4,5,6,7,8,9-hexahydrocycloocta[b]thiophene-2-carboxamide], the EC50 at mCX3CR1 was 52.8 µM; on rCX3CR1, 19.8 µM; on hCX3CR1 [1] it was 10.9 µM; on hCX3CR1 [2], 11.8 µM.

`COC1(C)CCN(CC2(CNC(=O)c3cc4c(s3)CCCCCC4)CCCC2)CC1` [Example 53, N-[[1-[(4-methoxy-4-methylpiperidin-1-yl)methyl]cyclopentyl]methyl]-4,5,6,7,8,9-hexahydrocycloocta[b]thiophene-2-carboxamide]: the EC50 was 48.6 µM at mCX3CR1, 33.7 µM on rCX3CR1, 8.6 µM at hCX3CR1 [1] and 11.8 µM at hCX3CR1 [2].

On to `CC1(O)CCCN(CC2(CNC(=O)c3cc4c(s3)CCCCCC4)CCCC2)C1` (stereo not shown) [Example 52, N-[[1-[(3-hydroxy-3-methylpiperidin-1-yl)methyl]cyclopentyl]methyl]-4,5,6,7,8,9-hexahydrocycloocta[b]thiophene-2-carboxamide], for which the EC50 at mCX3CR1 was 25.1 µM; at rCX3CR1, 19.4 µM; on hCX3CR1 [1] it was 19.4 µM; at hCX3CR1 [2], 8.4 µM.

With `COC1CCN(CC(C)(C)CNC(=O)c2cc3c(s2)CCCCCC3)CC1` [Example 47, N-[3-(4-methoxypiperidin-1-yl)-2,2-dimethylpropyl]-4,5,6,7,8,9-hexahydrocycloocta[b]thiophene-2-carboxamide], the concentration for a half-maximal effect (EC50) was determined as 71.5 µM on mCX3CR1, 19.8 µM on rCX3CR1, 12.6 µM at hCX3CR1 [1] and 16.4 µM on hCX3CR1 [2].

Regarding `COC1CCCN(CC2(CNC(=O)c3cc4c(s3)CCCCCC4)CCC2)C1` (stereo not shown) [Example 55, N-({1-[(3-Methoxypiperidin-1-yl)methyl]cyclobutyl}methyl)-4H,5H,6H,7H,8H,9H-cycloocta[b]thiophene-2-carboxamide], the EC50 is 8.1 µM at mCX3CR1, 12.1 µM at rCX3CR1, 13.7 µM at hCX3CR1 [1] and 7.1 µM at hCX3CR1 [2].

On to `CC1CCCC1(CNC(=O)c1cc2c(s1)CCCCCC2)CN1CCCC1` (stereo not shown) [Example 62, N-[[2-methyl-1-(pyrrolidin-1-ylmethyl)cyclopentyl]methyl]-4,5,6,7,8,9-hexahydrocycloocta[b]thiophene-2-carboxamide], for which the EC50 on mCX3CR1 was found to be 99.4 µM; at rCX3CR1, 40.9 µM; at hCX3CR1 [1], 20.8 µM; at hCX3CR1 [2] it was 12.9 µM.

Consider `CC1CCCC1(CNC(=O)c1cc2c(s1)CCCCCC2)CN(C)C` (single isomer, unassigned) [Example 61, N-[[1-[(dimethylamino)methyl]-2-methylcyclopentyl]methyl]-4,5,6,7,8,9-hexahydrocycloocta[b]thiophene-2-carboxamide], for which the EC50 worked out at 33.8 µM on mCX3CR1, 15.2 µM on rCX3CR1, 13.4 µM at hCX3CR1 [1] and 6.8 µM on hCX3CR1 [2].

For `O=C(NCC1(CN2CCC(O)CC2)CCC1)c1cc2c(s1)CCCCCC2` [Example 41, N-[[1-[(4-hydroxypiperidin-1-yl)methyl]cyclobutyl]methyl]-4,5,6,7,8,9-hexahydrocycloocta[b]thiophene-2-carboxamide], the EC50 on mCX3CR1 came to 9.4 µM; on rCX3CR1, 7.4 µM; on hCX3CR1 [1] it was 8.6 µM; at hCX3CR1 [2], 2.5 µM.

`CC(C)(CNC(=O)c1cc2c(s1)CCCCCC2)CN1CCC(O)C(C)(C)C1` (stereo not shown) [Example 68, N-[3-(4-hydroxy-3,3-dimethylpiperidin-1-yl)-2,2-dimethylpropyl]-4,5,6,7,8,9-hexahydrocycloocta[b]thiophene-2-carboxamide]: the EC50 on mCX3CR1 is greater than 100 µM; at rCX3CR1 it was 63 µM; on hCX3CR1 [1], 19.7 µM; on hCX3CR1 [2] it was 19.5 µM.

Turning to `COC1CCN(CC2(CNC(=O)c3cc4c(s3)CCCCCC4)CCC2)CC1` [Example 49, N-[[1-[(4-methoxypiperidin-1-yl)methyl]cyclobutyl]methyl]-4,5,6,7,8,9-hexahydrocycloocta[b]thiophene-2-carboxamide], the EC50 on mCX3CR1 was found to be 8.7 µM; at rCX3CR1, 6.6 µM; on hCX3CR1 [1], 10 µM; at hCX3CR1 [2], 8.9 µM.

Consider `O=C(NCC1(CN2CCCC(O)C2)CCC1)c1cc2c(s1)CCCCCC2` (stereo not shown) [Example 65, N-[[1-[(3-hydroxypiperidin-1-yl)methyl]cyclobutyl]methyl]-4,5,6,7,8,9-hexahydrocycloocta[b]thiophene-2-carboxamide], for which the EC50 at mCX3CR1 turned out to be 9.2 µM; at rCX3CR1 it was 7.4 µM; on hCX3CR1 [1], 6 µM; at hCX3CR1 [2] it was 8.2 µM.

For `O=C(NCC1(CN2CCC(O)CC2)CCCOC1)c1cc2c(s1)CCCCCC2` (stereo not shown) [Example 45, N-[[3-[(4-hydroxypiperidin-1-yl)methyl]oxan-3-yl]methyl]-4,5,6,7,8,9-hexahydrocycloocta[b]thiophene-2-carboxamide], the EC50 at mCX3CR1 was determined as 41.6 µM; at rCX3CR1, 18.7 µM; at hCX3CR1 [1], 14.3 µM; at hCX3CR1 [2] it was 14.1 µM.

`O=C(NCC1(CN2CCC(O)C2)CCC1)c1cc2c(s1)CCCCCC2` (stereo not shown) [Example 66, N-[[1-[(3-hydroxypyrrolidin-1-yl)methyl]cyclobutyl]methyl]-4,5,6,7,8,9-hexahydrocycloocta[b]thiophene-2-carboxamide]: the EC50 at mCX3CR1 was 20.4 µM; at rCX3CR1, 11.4 µM; on hCX3CR1 [1] it was 16 µM; at hCX3CR1 [2] it was 7.2 µM.
